Patent publication US12583848B2, “Isoxazole-3-carboxamide derivatives and their use for treatment of diseases caused by virus infection” (Collaborations Pharmaceuticals, Inc., priority 2019, dated 2026)

Tested on: cytochrome P450
Experiment: Effect on cytochrome P450 enzyme activity
Format: in vitro ADME

Cc1cc(-c2noc(C(F)(F)F)n2)ccc1OCCCc1cc(C(=O)N(C)C)no1 [Compound 8, N,N-dimethyl-5-(3-{2-methyl-4-[5-(trifluoromethyl)-1,2,4-oxadiazol-3-yl]phenoxy}propyl)isoxazole-3-carboxamide]
effect on cytochrome P450 enzyme activity: without affecting cytochrome P450 enzyme activity
